Reference: patent publication US7718651B2, “Inhibitors of FtsZ and uses thereof” (priority 2002, dated 2010)
≈ marks a conversion by molar mass, not a printed value. Where “and” joins values, the source holds several entries; their conditions need not be identical. Equal values may be shown once. Entries after “also recorded” stand apart in the source; their conditions may differ. Read-outs that look alike come from different tables or passages of the source.

Columns and labels:
[1] = test system: bovine tubulin; test: Light scattering assay for tubulin polymerization; format: biochemical
[2] = test system: Enterococcus hirae; test: Microdilution broth MIC, Enterococcus hirae; format: cell-based; details: Enterococcus hirae SRI 76, Wild type
[3] = test system: Escherichia coli; test: Microdilution broth MIC, Escherichia coli; format: cell-based
[4] = test system: Staphylococcus aureus; test: Microdilution broth MIC, Staphylococcus aureus; format: cell-based
[5] = test system: Mycobacterium bovis (BCG); format: cell-based
[6] = test system: M. tuberculosis Erdman; test: Activity in M. tuberculosis-infected mouse bone marrow macrophages; format: cell-based; details: for EC90: Mycobacterium tuberculosis, ERDMAN, Bone marrow macrophage, 168 h
Method: Toxicity was determined by visual inspection.

[7] = test system: M. tuberculosis H37Ra; test: MIC/MBC, colorimetric (alamar blue) microdilution broth assay; format: cell-based; details: for log reduction in cfu/mL: H37Ra
[8] = test system: Vero cells; test: Cytotoxicity in Vero cells (MTS assay); format: cell-based; details: Chlorocebus sabaeus, Vero cells
[9] = biological target: T1, M. tuberculosis FtsZ (Mycobacterium tuberculosis, UniProt P9WN95); test: biochemical; details: read-out: FtsZ polymerization ID50
T1 sequence (P9WN95 whole entry, looked up): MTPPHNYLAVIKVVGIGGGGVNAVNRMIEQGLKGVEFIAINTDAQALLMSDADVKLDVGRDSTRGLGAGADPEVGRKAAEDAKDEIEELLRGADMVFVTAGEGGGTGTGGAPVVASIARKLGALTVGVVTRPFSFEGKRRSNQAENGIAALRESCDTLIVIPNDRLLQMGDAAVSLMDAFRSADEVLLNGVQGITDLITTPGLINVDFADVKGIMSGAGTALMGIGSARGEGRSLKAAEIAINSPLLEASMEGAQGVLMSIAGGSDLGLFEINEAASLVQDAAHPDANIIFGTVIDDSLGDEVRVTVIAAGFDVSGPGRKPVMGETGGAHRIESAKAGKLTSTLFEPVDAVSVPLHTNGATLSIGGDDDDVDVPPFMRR

[10] = test system: Bacillus subtilis; test: Microdilution broth MIC, Bacillus subtilis; format: cell-based; details: Bacillus subtilis SRI 1032, Wild type
[11] = test system: M. tuberculosis H37Rv; test: MIC99 determination, BACTEC 460 radiometric system; format: cell-based; details: Mycobacterium tuberculosis; for MIC99: M. tuberculosis H37Rv
[12] = test system: S. epidermidis; test: Microdilution broth MIC, S. epidermidis; format: cell-based; details: Staphylococcus epidermidis; S. epidermidis SRI 1296, Trimethoprim resistant
[13] = test system: Salmonella typhimurium; test: Microdilution broth MIC, Salmonella typhimurium; format: cell-based
[14] = test system: panel of Gram positive rods and cocci; test: Microdilution broth MIC against a panel of bacteria; format: cell-based
[15] = test system: E. faecalis; test: Microdilution broth MIC, E. faecalis; format: cell-based
[16] = test system: E. faecium; test: Microdilution broth MIC, E. faecium; format: cell-based; details: Enterococcus faecium; E. faecium SRI 1421, Vancomycin resistant
[17] = test system: M. tuberculosis H37Rv; test: microbe, parasite or virus in culture; format: cell-based
[18] = biological target: T1, M. tuberculosis FtsZ; test: biochemical; details: 100 μM compound, Table 6; read-out: M. tuberculosis FtsZ GTP Hydrolysis % Inhibition (100 μM)

CCOC(=O)Nc1cc(NC(C)CCCN(CC)CC)c2nc(-c3ccccc3)c(-c3ccccc3)nc2n1 (stereo not drawn) [SRI-3072, [8-(4-Diethylamino-1-methyl-butylamino)-2,3-diphenyl-pyrido[2,3-b]pyrazin-6-yl]-carbamic acid ethyl ester]
inhibition of tubulin polymerization ([1]; in words, 100 μM): no inhibition of tubulin was seen; also recorded: no effect
Bovine Brain Tubulin Polymerization ID50 ([1]; tubulin 20 μM, 1 mM GTP, Table 6): no inhibition (100 μM)
MIC [2]: 32 µg/mL (≈ 60.8 µM)
MIC ([3]; Escherichia coli SRI 1218, Wild type): > 64 µg/mL
activity against E. coli ([3]; in words): not active
MIC ([4]; S. aureus SRI 1186, Wild type): 32 µg/mL (≈ 60.8 µM)
MIC ([4]; S. aureus SRI 1279, Methicillin resistant): 64 µg/mL (≈ 122 µM)
MIC ([4]; S. aureus SRI 1343, Multi-drug resistant): 64 µg/mL (≈ 122 µM)
MIC ([4]; Staphylocococcus aureus SRI 1323, Wild type): 32 µg/mL (≈ 60.8 µM)
MIC ([4]; strain not named): 32 µg/mL (≈ 60.8 µM)
cell length / morphology [5]: much longer and branched
recovery after washing to remove drug ([5]; BCG cultured cells): do not recover
EC90 ([6]; after seven days, read-out: EC90): 0.12 µg/mL
EC90 ([6]; after seven days, read-out: EC90 (90% reduction in mycobacterial growth)): 0.23 µM
EC99 ([6]; after seven days): 1.42 µg/mL
EC99 (99% reduction in mycobacterial growth) ([6]; after seven days): 2.7 µM
growth of M. tuberculosis in infected mouse bone marrow macrophages ([6]; in words): inhibit the growth
log reduction in cfu/mL ([7]; 0.95 μM drug, six days): 0.98±0.11
log reduction in cfu/mL ([7]; 1.9 μM drug, six days): 1.7±0.06
log reduction in cfu/mL ([7]; 3.8 μM drug, six days): 2.0±0.12
MBC ([7]; Mycobacterium tuberculosis, H37RA, 144 h, M. tuberculosis H37Ra, six days): 1 µg/mL to 2 µg/mL and 1.9 µM to 3.8 µM
MIC ([7]; Mycobacterium tuberculosis, H37RA, M. tuberculosis H37Ra, FIG. 2 legend): 250 µg/mL (≈ 475 µM)
MIC ([7]; Mycobacterium tuberculosis, H37RA, M. tuberculosis H37Ra, read-out: MIC): 0.25 µg/mL and 0.47 µM
IC50 ([8]; 72 h, 72 h exposure, Table 3, read-out: IC50): 6.3 µg/mL (≈ 12 µM)
IC50 ([8]; read-out: IC50): 6.3 µg/mL (≈ 12 µM)
IC50 [9]: 52 ± 12 µM
MIC [10]: 16 µg/mL (≈ 30.4 µM)
MIC ([11]; H37RV, MIC referred to for dosing of the macrophage assay, strain not stated, read-out: MIC): 0.2 µg/mL (≈ 0.38 µM)
MIC99 ([11]; Table 3, read-out: Screen 2 MIC99): 0.15 µg/mL (≈ 0.285 µM)
MIC99 ([11]; read-out: MIC99): 0.15 µg/mL and 0.28 µM
MIC ([11]; wildtype (H37Rv), Table 5, read-out: MIC, WT): 0.2 µg/mL (≈ 0.38 µM)
MIC [12]: 32 µg/mL (≈ 60.8 µM)
MIC ([13]; Salmonella enterica, TYPHIMURIUM): 64 µg/mL (≈ 122 µM)
activity against S. typhimurium deep rough (rfa) mutant ([13]; in words): active
MIC ([14]; Bacillus subtilis, read-out: MICs against expanded panel of Gram positive rods and cocci): 32 to 64 µg/mL (≈ 60.8 to 122 µM)
activity against several Gram-positive bacteria, including drug resistant strains ([14]; in words): moderate activity
MIC ([15]; E. faecalis SRl 1295, Wild type): 64 µg/mL (≈ 122 µM)
MIC ([15]; Enterococcus faecalis, E. faecalis SM 1414, Vancomycin resistant, read-out: MIC): 64 µg/mL (≈ 122 µM)
MIC [16]: 32 µg/mL (≈ 60.8 µM)
inhibition of growth at 12.5 µg/mL ([17]; Mycobacterium tuberculosis, M. tuberculosis H37Rv, at 12.5% μg/ml (so in the source), read-out: Primary Screen PI (% inhibition of growth)): 100%
activity against M. tuberculosis H37Rv in the primary screen ([17]; in words): demonstrated activity
inhibition at 100 µM [18]: 20%
